# System: influenza virus A/Puerto Rico/8/34 (H1N1)
# Parameters: species or system BALB/cA Jcl [SPF] mice
# Conditions: mouse, in vivo, iv
smiles,measurement,value
"CCC(CC)[C@H](NC(C)=O)[C@@H]1[C@H](O)[C@@H](C(=O)O)C[C@H]1N=C(N)N [peramivir, reference compound]",survival rate,20%

# Source: patent publication US12351652B2, “Hemagglutinin-binding peptide” (priority 2019, dated 2025)
